This passage reports IC50 results from patent US20120230951A1 (priority 2011, published 2012).

Where a name gives a salt, the structure may show the parent alone.

The test system of the assay is GT-1a pRLuc H771b 75 S/I subgenomic replicon cell line. In words: HCV GT-1a replicon luciferase reporter assay. The conditions noted are these: Hepatitis C virus, GT1A, 72 h, read-out: GT-1a (IC50) (nM). Format: cell-based. The text has this:
Determination of compounds HCV GT1b inhibitory replicon activity using the replicon luciferase reporter assay
The 2209-23 cell line was developed at Roche by stable transfection of the hepatoma cell line Huh-7 with a GT-1b Con1 subgenomic bicistronic replicon as previously described. Subgenomic replicon cell line was established in cured Huh7 cells, obtained from R. Bartenschlager (J. Virol. 2003 March; 77 (5):3007-19) The GT-1a H77 subgenomic replicon vector pRLuc H771b 75 S/I, was created by replacing the non structural region of the GT-1b Con1 subgenomic replicon by the one of the H77 strain, except for the first 75 amino acids of the NS3 protein that are from GT-1b Con1 strain. (J. Virol. 2001 77:5352-59) The GT-1a pRLuc H771b 75 S/I subgenomic replicon cell line was established in cured Huh7 cells, obtained from R. Bartenschlager. (J. Virol. 2003 March; 77 (5):3007-19)
All the subgenomic replicon cell lines were cultured in Dulbecco's Modified Eagle Medium (DMEM-Glutamax™-I; Invitrogen Cat #10569-010). The medium was supplemented with 10% Fetal Bovine Serum (Invitrogen Cat #10082-147), 1% penicillin/streptomycin (Mediatech Cat #30-002-CI) and 500 μg/ml of G418 (Mediatech Cat #30-234-CI). Cells were maintained at 37° C. in a humidified 5% CO2 atmosphere.
2209-23 cells were plated at a cell density of 5000 cells per well in 96 well plates (Becton Dickinson, Cat #35 3296). Cells were plated in 90 μl of Dulbecco's Modified Eagle Medium (DMEM-Glutamax™-I), (Invitrogen Cat #10569-010) medium was supplemented with 5% Fetal Bovine Serum (Invitrogen Cat #10082-147), 1% penicillin/streptomycin (Mediatech Cat #30-002-CI). The pRluc H771b 75 S/I cells were plated in 96-well plate at 3000 cells/well in DMEM-Glutamax™-I containing 5% FBS and 1% penicillin/streptomycin in 90 μl final volume. Cells were allowed to equilibrate for 24 hours at 37° C. and 5% CO2 at which time compounds were added. Compounds (or medium as a control) were added 24 hours post-plating in 3 fold dilutions at a final DMSO concentration of 1% in 10 ul volume. Renilla luciferase reporter signal was read 72 hours after addition of compounds using the Renilla Luciferase Assay System (Promega, cat #E2820). EC50 values were defined as the compound concentration at which a 50% reduction in the levels of renilla luciferase reporter was observed as compared to control samples in the absence of compound and was determined by non-linear fitting of compound dose-response data. The EC50 was approximated if maximum percentage inhibition was less than 90% and more than 70%.
In general terms: Replicon systems follow genome replication, usually without infectious particles.
A word on the IC50: it is the midpoint of a concentration-inhibition curve. Take `COC(=O)N[C@H]1CCc2cccc3c2N(C1=O)[C@H](c1ncc(-c2ccc(-c4ccc(-c5ccc6nc([C@@H]7CC(F)(F)CN7C(=O)[C@@H](NC(=O)OC)C(C)C)[nH]c6c5)cc4)cc2)[nH]1)C3` [Compound I-4, {(2S,5S)-2-[5-(4′-{2-[(S)-4,4-Difluoro-1-((S)-2-methoxycarbonylamino-3-methyl-butyryl)-pyrrolidin-2-yl]-3H-benzoimidazol-5-yl}-biphenyl-4-yl)-1H-imidazol-2-yl]-4-oxo-1,2,4,5,6,7-hexahydro-azepino[3,2,1-hi]indol-5-yl}-carbamic acid methyl ester]: the half-inhibitory concentration (IC50) is 4.11 nM. For `COC[C@H](NC(=O)OC)C(=O)N1CCC[C@H]1c1ncc(-c2ccc(-c3ccc(-c4cnc([C@@H]5Cc6cccc7c6N5C(=O)[C@@H](NC(=O)OC)CC7)[nH]4)cc3)cc2)[nH]1` [Compound I-43], the IC50 was 5.64 nM. As to `COC(=O)N[C@H]1CCc2cccc3c2N(C1=O)[C@H](c1ncc(-c2cnc(-c4ccc(-c5cnc([C@@H]6CCCN6C(=O)[C@@H](NC(=O)OC)C(C)C)[nH]5)cc4)nc2)[nH]1)C3` [Compound I-15, ((2S,5S)-2-{5-[2-(4-{2-[(S)-1-((S)-2-Methoxycarbonylamino-3-methyl-butyryl)-pyrrolidin-2-yl]-3H-imidazol-4-yl}-phenyl)-pyrimidin-5-yl]-1H-imidazol-2-yl}-4-oxo-1,2,4,5,6,7-hexahydro-azepino[3,2,1-hi]indol-5-yl)-carbamic acid methyl ester], the IC50 was determined as 13.4 nM. As to `COC(=O)N[C@H]1CCc2cccc3c2N(C1=O)[C@H](c1ncc(-c2ccc4nc(-c5ccc(-c6cnc([C@@H]7CCCN7C(=O)[C@@H](NC(=O)OC)C(C)C)[nH]6)cc5)ccc4c2)[nH]1)C3` [Compound I-22, ((2S,5S)-2-{5-[2-(4-{2-[(S)-1-((S)-2-Methoxycarbonylamino-3-methyl-butyryl)-pyrrolidin-2-yl]-1H-imidazol-4-yl}-phenyl)-quinolin-6-yl]-1H-imidazol-2-yl}-4-oxo-1,2,4,5,6,7-hexahydro-azepino[3,2,1-hi]indol-5-yl)-carbamic acid methyl ester trifluroacetic acid, trifluoroacetic acid salt], the half-maximal inhibitory concentration (IC50) was 1.45 nM. As for `COC(=O)N[C@H]1CCc2cccc3c2N(C1=O)[C@H](c1ncc(-c2ccc(-c4cnc5cc(-c6cnc([C@@H]7CCCN7C(=O)[C@@H](NC(=O)OC)C(C)(C)C)[nH]6)ccc5n4)cc2)[nH]1)C3` [Compound I-54, ((2S,5S)-2-{5-[4-(6-{2-[(S)-1-((S)-2-Methoxycarbonylamino-3,3-dimethyl-butyryl)-pyrrolidin-2-yl]-3H-imidazol-4-yl}-quinoxalin-2-yl)-phenyl]-1H-imidazol-2-yl}-4-oxo-1,2,4,5,6,7-hexahydro-azepino[3,2,1-hi]indol-5-yl)-carbamic acid methyl ester], the IC50 was 0.949 nM.

On to `COC(=O)N[C@H]1CCc2cccc3c2N(C1=O)[C@H](c1ncc(-c2ccc(-c4ccc(-c5cnc([C@@H]6C[C@@H](C#N)CN6C(=O)[C@@H](NC(=O)OC)C(C)C)[nH]5)cc4)cc2)[nH]1)C3` [Compound I-39, {(2S,5S)-2-[5-(4′-{2-[(2S,4R)-4-Cyano-1-((S)-2-methoxycarbonylamino-3-methyl-butyryl)-pyrrolidin-2-yl]-3H-imidazol-4-yl}-biphenyl-4-yl)-1H-imidazol-2-yl]-4-oxo-1,2,4,5,6,7-hexahydro-azepino[3,2,1-hi]indol-5-yl}-carbamic acid methyl ester], for which the 50% inhibitory concentration (IC50) turned out to be 5.34 nM. Turning to `COC(=O)N[C@H]1CCc2cccc3c2N(C1=O)[C@H](c1ncc(-c2ccc4cc(-c5ccc(-c6cnc([C@@H]7CCCN7C(=O)[C@@H](NC(=O)OC)C(C)C)[nH]6)cn5)ccc4c2)[nH]1)C3` [Compound I-24, ((2S,5S)-2-{4-[6-(5-{2-[(S)-1-((S)-2-Methoxycarbonylamino-3-methyl-butyryl)-pyrrolidin-2-yl]-3H-imidazol-4-yl}-pyridin-2-yl)-naphthalen-2-yl]-1H-imidazol-2-yl}-4-oxo-1,2,4,5,6,7-hexahydro-azepino[3,2,1-hi]indol-5-yl)-carbamic acid methyl ester di-trifluoroacetic acid salt], the half-inhibitory concentration (IC50) is 1.16 nM. In the case of `COC(=O)N[C@H]1CCc2cccc3c2N(C1=O)[C@H](c1ncc(-c2ccc(-c4ccc(-c5[nH]c([C@@H]6CC(F)(F)CN6C(=O)[C@@H](NC(=O)OC)C(C)C)nc5Cl)cc4)cc2)[nH]1)C3` [Compound I-32, {(2S,5S)-2-[5-(4′-{5-Chloro-2-[(S)-4,4-difluoro-1-((S)-2-methoxycarbonylamino-3-methyl-butyryl)-pyrrolidin-2-yl]-3H-imidazol-4yl}-biphenyl-4-yl)-1H-imidazol-2-yl]-4-oxo-1,2,4,5,6,7-hexahydro-azepino[3,2,1-hi]indol-5-yl}-carbamic acid methyl ester], the half-inhibitory concentration (IC50) was 5.78 nM.

In the case of `COC(=O)N[C@H]1CCc2cccc3c2N(C1=O)[C@H](c1ncc(-c2cnc(-c4ccc(-c5cnc([C@@H]6CC(F)(F)CN6C(=O)[C@@H](NC(=O)OC)C(C)C)[nH]5)cc4)nc2)[nH]1)C3` [Compound I-16, ((2S,5S)-2-{5-[2-(4-{2-[(S)-1-((S)-2-Methoxycarbonylamino-3-methyl-butyryl)-4,4-difluoro-pyrrolidin-2-yl]-3H-imidazol-4-yl}-phenyl)-pyrimidin-5-yl]-1H-imidazol-2-yl}-4-oxo-1,2,4,5,6,7-hexahydro-azepino[3,2,1-hi]indol-5-yl)-carbamic acid methyl ester], the IC50 worked out at 29.2 nM. `COC(=O)N[C@H]1CCc2cccc3c2N(C1=O)[C@H](c1ncc(-c2ccc(-c4ccc(-c5cnc([C@@H]6C[C@H](O)CN6C(=O)[C@@H](NC(=O)OC)C(C)C)[nH]5)cc4)cc2)[nH]1)C3` [Compound I-33, {(2S,5S)-2-[5-(4′-{2-[(2S,4S)-4-Hydroxy-1-((S)-2-methoxycarbonylamino-3-methyl-butyryl)-pyrrolidin-2-yl]-3H-imidazol-4-yl}-biphenyl-4-yl)-1H-imidazol-2-yl]-4-oxo-1,2,4,5,6,7-hexahydro-azepino[3,2,1-hi]indol-5-yl}-carbamic acid methyl ester]: the IC50 is 46.1 nM.

Consider `COCC[C@H](NC(=O)OC)C(=O)N1CCC[C@H]1c1ncc(-c2ccc(-c3ccc(-c4cnc([C@@H]5Cc6cccc7c6N5C(=O)[C@@H](NC(=O)OC)CC7)[nH]4)cc3)cc2)[nH]1` [Compound I-46], for which the IC50 was found to be 2.96 nM. Under `COC(=O)N[C@H]1CCc2cccc3c2N(C1=O)[C@H](c1ncc(-c2cnc4cc(-c5ccc(-c6[nH]c([C@@H]7CCCN7C(=O)[C@@H](NC(=O)OC)C(C)C)nc6Cl)cc5)ccc4c2)[nH]1)C3` [Compound I-20, ((2S,5S)-2-{5-[7-(4-{5-Chloro-2-[(S)-1-((S)-2-methoxycarbonylamino-3-methyl-butyryl)-pyrrolidin-2-yl]-3H-imidazol-4-yl}-phenyl)-quinolin-3-yl]-1H-imidazol-2-yl}-4-oxo-1,2,4,5,6,7-hexahydro-azepino[3,2,1-hi]indol-5-yl)-carbamic acid methyl ester trifluroacetic acid, trifluoroacetic acid salt] stands 12 nM; under `COC(=O)NC(C(=O)N1CCC[C@H]1c1ncc(-c2ccc(-c3ccc(-c4cnc([C@@H]5Cc6cccc7c6N5C(=O)[C@@H](NC(=O)OC)CC7)[nH]4)cc3)cc2)[nH]1)C1CCOCC1` (some centres unmarked) [Compound I-48], 2.83 nM. Take `COC(=O)N[C@H]1CCc2cc(C(N)=O)cc3c2N(C1=O)[C@H](c1ncc(-c2ccc(-c4ccc(-c5cnc([C@H]6CCCN6C(=O)[C@H](NC(=O)OC)C(C)C)[nH]5)cc4)cc2)[nH]1)C3` [Compound I-27, {(2S,5S)-9-Carbamoyl-2-[5-(4′-{2-[(R)-1-((R)-2-methoxycarbonylamino-3-methyl-butyryl)-pyrrolidin-2-yl]-3H-imidazol-4-yl}-biphenyl-4-yl)-1H-imidazol-2-yl]-4-oxo-1,2,4,5,6,7-hexahydro-azepino[3,2,1-hi]indol-5-yl}-carbamic acid methyl ester]: the half-inhibitory concentration (IC50) is 5.08 nM.
